Source: article PMC4379176, “Unsaturation of Very-Long-Chain Ceramides Protects Plant from Hypoxia-Induced Damages by Modulating Ethylene Signaling in Arabidopsis” (PLoS Genetics, 2015)
Read-outs that look alike come from different tables or passages of the source. Values belong to the compound of their own block, whether it stands above or below them.

Columns and labels:
[1] = target: T1, rCTR1 (Arabidopsis thaliana, UniProt Q05609); test: microscale thermophoresis; type: binding
T1 construct: gene CTR1; full-length CTR1 coding region, N-terminal GST fusion (pGEX-6P-1), E. coli BL21 (DE3); tag kept (detected by anti-GST)
T1 sequence (Q05609 1-821): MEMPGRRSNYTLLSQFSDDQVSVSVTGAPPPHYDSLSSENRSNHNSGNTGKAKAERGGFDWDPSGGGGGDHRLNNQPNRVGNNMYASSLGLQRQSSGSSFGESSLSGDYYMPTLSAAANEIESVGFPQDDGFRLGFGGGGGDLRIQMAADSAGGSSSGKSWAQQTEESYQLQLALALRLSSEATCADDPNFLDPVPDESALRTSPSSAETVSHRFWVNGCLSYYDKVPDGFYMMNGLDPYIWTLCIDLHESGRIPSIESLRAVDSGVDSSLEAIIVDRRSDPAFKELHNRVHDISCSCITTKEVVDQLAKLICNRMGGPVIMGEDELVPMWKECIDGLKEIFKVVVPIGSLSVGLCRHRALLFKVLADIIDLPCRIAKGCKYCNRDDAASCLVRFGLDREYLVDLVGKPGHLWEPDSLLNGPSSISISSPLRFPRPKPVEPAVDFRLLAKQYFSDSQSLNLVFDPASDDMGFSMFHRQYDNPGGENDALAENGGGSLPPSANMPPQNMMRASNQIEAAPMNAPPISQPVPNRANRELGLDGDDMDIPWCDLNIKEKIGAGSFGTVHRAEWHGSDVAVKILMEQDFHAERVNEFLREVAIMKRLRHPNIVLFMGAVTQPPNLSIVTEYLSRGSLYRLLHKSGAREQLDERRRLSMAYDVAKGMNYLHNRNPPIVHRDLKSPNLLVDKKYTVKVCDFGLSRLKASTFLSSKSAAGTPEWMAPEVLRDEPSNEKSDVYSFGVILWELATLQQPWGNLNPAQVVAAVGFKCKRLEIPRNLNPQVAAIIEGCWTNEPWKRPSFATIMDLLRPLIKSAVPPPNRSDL
Description: microscale thermophoresis on rCTR1

[2] = target: T2, rCTR1-K (Arabidopsis thaliana, UniProt Q05609); test: microscale thermophoresis; type: binding; settings: liposomes of the lipid, 10 nM RED-labelled protein, 50 mM Tris-HCl pH 7.4, 150 mM NaCl, 10 mM MgCl2, 0.05% Tween-20
T2 construct: gene CTR1; tag kept
Description: microscale thermophoresis on rCTR1-K

[3] = target: T2, rCTR1-K; test: TR-FRET kinase assay (HTRF KinEASE, STK Substrate 2-biotin); type: biochemical; settings: liposomes pre-incubated 30 min at 4°C; 100 μM ATP, 1 μM STK Substrate 2-biotin; room temperature; inhibition
[4] = target: T1, rCTR1; test: as above; type: biochemical; settings: liposomes pre-incubated 30 min at 4°C; 100 μM ATP, 1 μM STK Substrate 2-biotin; room temperature; inhibition
[5] = read-out: Dissociation Constants (K d) / 24:1-Cer

- Kd ([1]; liposomes of the lipid, 10 nM RED-labelled protein, 50 mM Tris-HCl pH 7.4, 150 mM NaCl, 10 mM MgCl2, 0.05% Tween-20, highest liposome concentration 50 μM, no binding seen on filters, read-out: Dissociation Constants (K d) / 18:0-Cer): 50.6 ± 5.2 µM
- Kd ([2]; read-out: Dissociation Constants (K d) / 18:0-Cer): 49.3 ± 7 µM
Compound: 18:0-Cer

- Kd ([1]; liposomes of the lipid, 10 nM RED-labelled protein, 50 mM Tris-HCl pH 7.4, 150 mM NaCl, 10 mM MgCl2, 0.05% Tween-20, read-out: Dissociation Constants (K d) / 24:0-Cer): 10.8 ± 1.3 µM
- Kd ([2]; read-out: Dissociation Constants (K d) / 24:0-Cer): 4.3 ± 1.3 µM
Compound: 24:0-Cer

- Kd [1, 5]: 1.6 ± 0.1 µM
- Kd [2, 5]: 1 ± 0.1 µM
Compound: CCCCCCCC/C=C\CCCCCCCCCCCCCC(=O)N[C@@H](CO)[C@H](O)/C=C/CCCCCCCCCCCCC [24:1-Cer]
- relative CTR1 activity at 1 nM [3]: both rCTR1 and rCTR1-K proteins exhibited decreased kinase activities
- relative CTR1 activity at 1 nM [4]: both rCTR1 and rCTR1-K proteins exhibited decreased kinase activities
